Laboratory results from ChEMBL document CHEMBL1135518 (J Med Chem, 2002).

Columns and labels:
Rattus norvegicus [1] = assay: The increase in the extracellular levels of NA in the rat ventral hippocampus at a dose of 2.5 mg/kg sc measured by in vivo microdialysis; assay type: functional; conditions: route subcutaneous
[2] = The binding affinity at the Histamine H1 receptor determined using [3H]pyrilamine; design: species or system Cavia porcellus
[3] = target: T1, Adrenergic receptor alpha-2 (Rattus norvegicus, UniProt P22086+P19328+P22909); assay: The binding affinity at the Alpha-2 adrenergic receptor determined using [3H]RX-821002; assay type: protein assay
T1 sequence (P22086 whole entry): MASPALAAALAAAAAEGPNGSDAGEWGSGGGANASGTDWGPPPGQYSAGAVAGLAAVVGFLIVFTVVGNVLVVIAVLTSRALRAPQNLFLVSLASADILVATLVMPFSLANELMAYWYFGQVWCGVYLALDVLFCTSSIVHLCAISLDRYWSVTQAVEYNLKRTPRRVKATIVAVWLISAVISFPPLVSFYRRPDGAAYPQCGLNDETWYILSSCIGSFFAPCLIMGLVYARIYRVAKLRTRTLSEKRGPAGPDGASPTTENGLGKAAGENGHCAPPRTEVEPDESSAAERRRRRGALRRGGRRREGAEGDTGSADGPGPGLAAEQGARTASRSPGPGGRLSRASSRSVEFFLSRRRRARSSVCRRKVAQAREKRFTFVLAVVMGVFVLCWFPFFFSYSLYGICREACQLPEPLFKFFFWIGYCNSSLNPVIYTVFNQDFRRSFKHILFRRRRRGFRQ
T1 sequence (P19328 whole entry): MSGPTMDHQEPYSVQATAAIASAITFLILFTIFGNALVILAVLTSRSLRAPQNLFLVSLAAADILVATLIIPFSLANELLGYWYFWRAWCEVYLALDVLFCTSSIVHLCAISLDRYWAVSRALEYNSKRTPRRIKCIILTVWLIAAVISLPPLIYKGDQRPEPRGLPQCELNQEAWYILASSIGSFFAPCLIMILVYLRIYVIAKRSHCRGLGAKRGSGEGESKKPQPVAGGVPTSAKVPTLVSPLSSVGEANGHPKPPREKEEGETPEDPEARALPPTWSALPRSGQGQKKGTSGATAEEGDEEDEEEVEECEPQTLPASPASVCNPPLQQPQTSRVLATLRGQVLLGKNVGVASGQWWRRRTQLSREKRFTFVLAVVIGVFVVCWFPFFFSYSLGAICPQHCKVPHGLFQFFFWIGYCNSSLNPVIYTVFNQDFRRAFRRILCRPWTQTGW
T1 sequence (P22909 whole entry): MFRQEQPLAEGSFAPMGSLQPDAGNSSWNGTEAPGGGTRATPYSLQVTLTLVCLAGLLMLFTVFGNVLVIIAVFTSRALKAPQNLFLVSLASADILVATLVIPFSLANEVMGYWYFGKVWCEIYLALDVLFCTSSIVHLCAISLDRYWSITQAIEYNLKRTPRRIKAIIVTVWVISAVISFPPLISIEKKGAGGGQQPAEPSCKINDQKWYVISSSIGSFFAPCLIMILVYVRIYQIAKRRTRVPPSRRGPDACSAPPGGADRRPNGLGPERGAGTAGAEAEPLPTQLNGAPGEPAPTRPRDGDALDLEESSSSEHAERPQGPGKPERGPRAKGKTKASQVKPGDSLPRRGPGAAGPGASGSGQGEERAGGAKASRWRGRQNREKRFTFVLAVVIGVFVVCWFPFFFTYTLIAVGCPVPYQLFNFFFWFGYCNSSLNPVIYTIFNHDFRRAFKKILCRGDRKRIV

Rattus norvegicus [4] = assay: The increase in the extracellular levels of 5-HT in the rat ventral hippocampus at a dose of 2.5 mg/kg sc measured by in vivo microdialysis; assay type: functional; conditions: route subcutaneous
Rattus norvegicus [5] = assay: The increase in the extracellular levels of DOPAC in the rat ventral hippocampus at a dose of 2.5 mg/kg sc measured by in vivo microdialysis; assay type: functional; conditions: route subcutaneous
Rattus norvegicus [6] = assay: The increase in the extracellular levels of NA in the rat ventral hippocampus at a dose of 5.0 mg/kg sc measured by in vivo microdialysis; assay type: functional; conditions: route subcutaneous
Rattus norvegicus [7] = assay: The increase in the extracellular levels of DOPAC in the rat ventral hippocampus at a dose of 5.0 mg/kg sc measured by in vivo microdialysis; assay type: functional; conditions: route subcutaneous
Rattus norvegicus [8] = assay: The increase in the extracellular levels of 5-HT in the rat ventral hippocampus at a dose of 5.0 mg/kg sc measured by in vivo microdialysis; assay type: functional; conditions: route subcutaneous

| Structure (SMILES) | Increase (Rattus norvegicus [1]) | Ki [2] | Ki [3] | Increase (Rattus norvegicus [4]) | Increase (Rattus norvegicus [5]) | Increase (Rattus norvegicus [6]) | Increase (Rattus norvegicus [7]) | Increase (Rattus norvegicus [8]) |
| --- | --- | --- | --- | --- | --- | --- | --- | --- |
| COc1cccc2c1N1CCN(C)C[C@@H]1c1ccccc1C2 | 200% | 0.013 µM | 0.073 µM | 200% | 130% |  |  |  |
| COc1cccc2c1N1CCN(C)C[C@H]1c1ccccc1C2 |  | 0.014 µM | 0.037 µM | 200% | 160% | 200% |  |  |
| COc1cccc2c1N1CCN(C)CC1c1ccccc1C2 (racemic) |  |  |  |  |  | 200% | 160% | 200% |
